Assay results as given in paper PMC9571711, “New Biologically Hybrid Pharmacophore Thiazolidinone-Based Indole Derivatives: Synthesis, In Vitro Alpha-Amylase and Alpha-Glucosidase along with Molecular Docking Investigations” (Molecules, 2022).

Columns and labels:
[1] = target: crude intestinal α-glucosidase; experiment: In vitro alpha-glucosidase inhibition (p-nitrophenyl-α-D-glucopyranoside); assay type: biochemical; details: ± SEM
Protocol: 3.6. Alpha-glucosidase inhibition protocol
α-Glucosidase inhibitory activities was determined as per reported methods. 10 μL of test samples (5 mg/mL DMSO solution) were altered in 100 μL of 100 mM-phosphate buffer (pH 6.8) in 96-well microplate and incubated with 50 μL of crude intestinal α-glucosidase for 5 min before 50μL substrate (5 mM, p-nitrophenyl-α-D-glucopyranoside prepared in same buffer) was […]
plus384) for 5 min after incubation with substrate. Individual blanks for test samples were prepared to correct background absorban ce where substrate was replaced with 50μL of buffer.
Control sample contained 10 μL DMSO in place of test samples. Percentage of enzyme inhibition was calculated as (1-B/A) x 100 where A represents absorbance of control without test samples, and B represents absorbance in presence of test samples. […]

**Q.** What does the source list for `O=C1N/C(=N/c2nccs2)S/C1=C\c1cc2[nH]ccc2c(Cl)c1[N+](=O)[O-]` [Compound 3]?
**A.** melting point: 235 to 237 °C; IC50 [1]: 8.7 ± 0.2 µM

**Q.** What does the source list for `O=C1N/C(=N/c2nccs2)S/C1=C/c1cc(F)c2cc[nH]c2c1` [Compound 4, (2Z,5E)-5-((4-fluoro-1H-indol-6-yl)methylene)-2-(thiazol-2-ylimino)thiazolidin-4-one]?
**A.** melting point: 237 to 239 °C; IC50 [1]: 2.7 ± 0.7 µM

**Q.** Which melting point does the source give for `O=C1NC(=Nc2nccs2)SC1=Cc1cc2[nH]ccc2cc1F` [Compound 5, (2Z,5E)-5-((5-fluoro-1H-indol-6-yl)methylene)-2-(thiazol-2-ylimino)hiazolidine-4-one] here?
**A.** 234 to 236 °C

**Q.** Which melting point does the source give for `O=C1N/C(=N/c2nccs2)S/C1=C\c1cc(C(F)(F)F)c2cc[nH]c2c1O` [Compound 6] here?
**A.** 238 to 240 °C

**Q.** And the IC50 [1]?
**A.** 4.5 ± 0.7 µM

**Q.** Which melting point does the source give for `O=C1N/C(=N/c2nccs2)S/C1=C\c1cc(O)c2cc[nH]c2c1O` [Compound 7] here?
**A.** 238 to 241 °C

**Q.** What about the IC50 [1] of the same compound?
**A.** 3.5 ± 0.8 µM

**Q.** For `COc1cc2cc[nH]c2c(O)c1/C=C1\S/C(=N\c2nccs2)NC1=O` [Compound 8], which melting point is on record?
**A.** 238 to 241 °C

**Q.** And the IC50 [1]?
**A.** 8.7 ± 0.8 µM

**Q.** With `CN(C)c1cc(/C=C2\S/C(=N\c3nccs3)NC2=O)cc2[nH]ccc12` [Compound 9] as the compound, how does the melting point read?
**A.** 234 to 237 °C

**Q.** And the IC50 [1]?
**A.** 23.2 ± 0.4 µM

**Q.** Which melting point does the source give for `N#Cc1cc(/C=C2\S/C(=N\c3nccs3)NC2=O)cc2[nH]ccc12` [Compound 10] here?
**A.** 239 to 242 °C

**Q.** And the IC50 [1]?
**A.** 24.6 ± 0.2 µM

**Q.** For `O=C1N/C(=N/c2nccs2)S/C1=C\c1c(O)cc2cc[nH]c2c1Cl` [Compound 11], which melting point is on record?
**A.** 236 to 239 °C

**Q.** And the IC50 [1]?
**A.** 7.85 ± 0.2 µM

**Q.** Which melting point does the source give for `O=C1N/C(=N/c2nccs2)S/C1=C\c1cc(O)c2cc[nH]c2c1Cl` [Compound 12] here?
**A.** 236 to 239 °C

**Q.** And the IC50 [1]?
**A.** 9.1 ± 0.3 µM

**Q.** For `O=C1N/C(=N/c2nccs2)S/C1=C\c1cc2[nH]ccc2c(Cl)c1Cl` [Compound 14], which melting point is on record?
**A.** 231 to 233 °C

**Q.** What about the IC50 [1] of the same compound?
**A.** 13.5 ± 0.4 µM

**Q.** Which melting point does the source give for `O=C1N/C(=N/c2nccs2)S/C1=C\c1cc2[nH]ccc2c(Cl)c1Br` [Compound 15] here?
**A.** 241 to 243 °C

**Q.** And the IC50 [1]?
**A.** 28.4 ± 0.8 µM

**Q.** For `O=C1N/C(=N/c2nccs2)S/C1=C\c1cc(Br)c2cc[nH]c2c1Cl` [Compound 16], which melting point is on record?
**A.** 240 to 242 °C

**Q.** And the IC50 [1]?
**A.** 26.7 ± 0.3 µM

**Q.** For `Cc1c(Br)c(/C=C2\S/C(=N\c3nccs3)NC2=O)cc2[nH]ccc12` [Compound 17], which melting point is on record?
**A.** 242 to 245 °C

**Q.** What about the IC50 [1] of the same compound?
**A.** 31.5 ± 0.5 µM

**Q.** With `Cc1c(/C=C2\S/C(=N\c3nccs3)NC2=O)cc2[nH]ccc2c1Br` [Compound 18] as the compound, how does the melting point read?
**A.** 239 to 242 °C

**Q.** What about the IC50 [1] of the same compound?
**A.** 23.3 ± 0.4 µM

**Q.** For `O=C1N/C(=N/c2nccs2)S/C1=C\c1cccc(O)c1` [Compound 19], which IC50 [1] is on record?
**A.** 19.8 ± 0.6 µM

**Q.** Which results are given for `O=C1N/C(=N/c2nccs2)S/C1=C\c1c(O)cc2cc[nH]c2c1Br` [Compound 20, (2Z,5Z)-5-((7-bromo-5-hydroxy-1H-indol-6-yl)methylene)-2-(thiazol-2-ylimino)thiazolidin-4-one]?
**A.** melting point: 234 to 237 °C; IC50 [1]: 29.4 ± 0.9 µM
